Data from US6793839B1, “Cucurbiturils and method for synthesis” (Unisearch Limited, priority 1999, dated 2004).

What was measured:
[1] = uptake of carbon monoxide; type: binding
Description: Accordingly, the invention further provides a method for removing carbon monoxide from a liquid or vapour containing carbon monoxide by contacting the liquid or vapour with cucurbit[5]uril.

[2] = solubility in acid and salt solutions; type: physicochemical; settings: 0.1M Na2SO4 solution
Description: All of the cucurbit[n]urils that have been observed are apparently soluble in acid solutions. Cucurbit[5 or 7 or 8 or 10]uril have been purified by successive recrystallisations from acid solutions. Because of the similar nature of the cucurbiturils, this is a slow process with more than 10 recrystallisations required to purify cucurbit[7]uril. As shown in the German patents cucurbit[6]uril can be obtained in a relatively pure state from a single recystallisation process.
The present invention provides a method for producing a range of cucurbit[n]urils and cucurbit[s,u]urils. The synthesis method results in the production of a number of cucurbit[n]urils and cucurbit[s,u]urils that have never before been produced or isolated. Separation is possible via chromatography and/or selective precipitation. The product cucurbit[n]urils and cucurbit[s,u]urils are stable to vigorous reaction conditions over a wide range of pH values. They are soluble in aqueous acid or aqueous salt solutions. The method gives cucurbiturils in much larger yields than previously possible. The use of templating compounds allows a degree of control over the relative amounts of the different cucurbit[n]urils being produced.

[3] = binding of dioxane in aqueous solutions
Description: This dioxane binding properly can form the basis of processes for the removal of dioxane. According to a further aspect of the present invention, the present invention provides a process for removing dioxane from a fluid comprising contacting the fluid with cucurbit[6]uril and/or cucurbit[7]uril.

Compound	uptake of carbon monoxide [1]	dissolution in salt solution out of a mixture containing cucurbit[5-8]urils [2]	binding of dioxane [3]
O=C1N2CN3C(=O)N4CN5C(=O)N6CN7C(=O)N8CN9C(=O)N%10CN1C1C2N2CN%11C(=O)N(CN%12C(=O)N(CN%13C(=O)N(CN%14C(=O)N(CN1C2=O)C%10C9%14)C8C7%13)C6C5%12)C4C3%11 (centres unmarked) [cucurbit[5]uril]	has shown uptake of carbon monoxide		
O=C1N2CN3C(=O)N4CN5C(=O)N6CN7C(=O)N8CN9C(=O)N%10CN%11C(=O)N%12CN1C1C2N2CN%13C(=O)N(CN%14C(=O)N(CN%15C(=O)N(CN%16C(=O)N(CN%17C(=O)N(CN1C2=O)C%12C%11%17)C%10C9%16)C8C7%15)C6C5%14)C4C3%13 (centres unmarked) [cucurbit[6]uril]		dissolving cucurbit[6 or 7]uril out of the complex mixture	bind dioxane
cucurbit[7]uril		dissolving cucurbit[6 or 7]uril out of the complex mixture	bind dioxane
